# Measurements from ChEMBL document CHEMBL3351663, “Discovery of acylurea isosteres of 2-acylaminothiadiazole in the azaxanthene series of glucocorticoid receptor agonists” (Bioorg Med Chem Lett, 2014).
# Experiments:
# [1] = Half life in human liver microsomes
# [2] = target: T1, Progesterone receptor (Homo sapiens, UniProt P06401); assay: Binding affinity to progesterone receptor (unknown origin) by fluorescence polarization assay
# T1 sequence (P06401 whole entry): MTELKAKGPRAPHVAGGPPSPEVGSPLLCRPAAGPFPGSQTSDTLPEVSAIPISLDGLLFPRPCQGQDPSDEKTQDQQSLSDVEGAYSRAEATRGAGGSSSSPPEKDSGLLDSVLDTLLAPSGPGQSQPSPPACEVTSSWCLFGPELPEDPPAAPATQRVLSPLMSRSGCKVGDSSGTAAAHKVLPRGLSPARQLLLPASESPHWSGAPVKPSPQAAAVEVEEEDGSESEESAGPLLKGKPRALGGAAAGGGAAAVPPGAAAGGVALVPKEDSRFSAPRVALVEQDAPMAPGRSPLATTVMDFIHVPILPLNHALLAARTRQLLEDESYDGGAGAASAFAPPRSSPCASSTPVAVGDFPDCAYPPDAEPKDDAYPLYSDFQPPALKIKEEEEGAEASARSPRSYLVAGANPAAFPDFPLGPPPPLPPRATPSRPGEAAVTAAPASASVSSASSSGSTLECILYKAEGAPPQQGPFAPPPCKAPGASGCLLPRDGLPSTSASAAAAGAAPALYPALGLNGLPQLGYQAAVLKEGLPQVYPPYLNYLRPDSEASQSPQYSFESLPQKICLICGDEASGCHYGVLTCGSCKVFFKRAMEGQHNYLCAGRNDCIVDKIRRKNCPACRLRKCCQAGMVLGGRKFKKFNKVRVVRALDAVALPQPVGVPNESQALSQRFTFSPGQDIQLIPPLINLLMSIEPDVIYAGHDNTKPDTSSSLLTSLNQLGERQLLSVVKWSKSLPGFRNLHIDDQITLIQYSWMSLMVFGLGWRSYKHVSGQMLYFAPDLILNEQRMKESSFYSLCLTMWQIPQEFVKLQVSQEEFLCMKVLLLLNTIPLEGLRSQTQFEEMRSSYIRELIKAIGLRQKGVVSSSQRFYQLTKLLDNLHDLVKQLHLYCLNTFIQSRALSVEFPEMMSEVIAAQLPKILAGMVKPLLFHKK
# [3] = target: T2, Mineralocorticoid receptor (Homo sapiens, UniProt P08235); assay: Agonist activity at mineralocorticoid receptor in human A549 cells; format: cell-based
# T2 sequence (P08235 whole entry): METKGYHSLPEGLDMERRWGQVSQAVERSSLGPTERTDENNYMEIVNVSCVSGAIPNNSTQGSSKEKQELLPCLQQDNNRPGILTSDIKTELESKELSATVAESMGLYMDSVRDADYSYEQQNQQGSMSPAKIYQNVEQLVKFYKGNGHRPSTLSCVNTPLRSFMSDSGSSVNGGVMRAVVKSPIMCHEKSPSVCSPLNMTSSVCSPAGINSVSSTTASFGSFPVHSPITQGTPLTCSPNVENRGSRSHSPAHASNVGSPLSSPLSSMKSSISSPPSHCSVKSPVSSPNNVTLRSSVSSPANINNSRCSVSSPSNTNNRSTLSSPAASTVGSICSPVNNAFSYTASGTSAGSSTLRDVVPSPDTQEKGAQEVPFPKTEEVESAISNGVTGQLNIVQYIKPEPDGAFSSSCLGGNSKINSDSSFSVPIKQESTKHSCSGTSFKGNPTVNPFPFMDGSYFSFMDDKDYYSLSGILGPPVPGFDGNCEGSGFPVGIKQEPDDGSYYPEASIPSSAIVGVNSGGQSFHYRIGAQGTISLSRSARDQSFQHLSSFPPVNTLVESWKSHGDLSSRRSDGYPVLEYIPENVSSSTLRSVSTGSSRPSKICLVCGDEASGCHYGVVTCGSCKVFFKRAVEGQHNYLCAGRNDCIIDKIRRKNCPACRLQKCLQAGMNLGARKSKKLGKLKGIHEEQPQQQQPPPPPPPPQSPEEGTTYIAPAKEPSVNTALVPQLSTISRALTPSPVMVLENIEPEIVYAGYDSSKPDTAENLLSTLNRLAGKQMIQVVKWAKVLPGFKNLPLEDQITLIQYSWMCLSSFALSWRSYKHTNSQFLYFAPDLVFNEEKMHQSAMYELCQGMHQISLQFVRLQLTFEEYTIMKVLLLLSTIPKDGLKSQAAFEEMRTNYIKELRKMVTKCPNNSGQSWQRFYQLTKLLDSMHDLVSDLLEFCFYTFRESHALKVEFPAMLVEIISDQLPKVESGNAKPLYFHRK
# [4] = target: T3, Cytochrome P450 2C8 (Homo sapiens, UniProt P10632); assay: Inhibition of CYP2C8 (unknown origin); format: ADME
# T3 sequence (P10632 whole entry): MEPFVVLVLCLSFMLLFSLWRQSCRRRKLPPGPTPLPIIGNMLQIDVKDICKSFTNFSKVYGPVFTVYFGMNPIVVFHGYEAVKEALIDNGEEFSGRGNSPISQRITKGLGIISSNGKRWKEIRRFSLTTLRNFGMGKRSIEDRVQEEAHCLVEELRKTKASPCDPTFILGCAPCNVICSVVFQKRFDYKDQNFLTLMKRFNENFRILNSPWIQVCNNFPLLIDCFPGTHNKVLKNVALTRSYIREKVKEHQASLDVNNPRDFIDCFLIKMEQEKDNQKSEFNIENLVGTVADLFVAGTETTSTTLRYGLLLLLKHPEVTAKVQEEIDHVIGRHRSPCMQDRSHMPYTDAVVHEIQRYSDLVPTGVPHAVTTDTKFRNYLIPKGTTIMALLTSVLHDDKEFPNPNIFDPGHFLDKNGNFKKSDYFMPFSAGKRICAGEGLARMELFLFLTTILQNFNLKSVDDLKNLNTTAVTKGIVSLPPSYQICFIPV
# [5] = target: Cytochrome P450 3A4 (Homo sapiens, UniProt P08684); assay: Inhibition of CYP3A4 (unknown origin); format: ADME
# Chain of Cytochrome P450 3A4 (P08684 whole entry): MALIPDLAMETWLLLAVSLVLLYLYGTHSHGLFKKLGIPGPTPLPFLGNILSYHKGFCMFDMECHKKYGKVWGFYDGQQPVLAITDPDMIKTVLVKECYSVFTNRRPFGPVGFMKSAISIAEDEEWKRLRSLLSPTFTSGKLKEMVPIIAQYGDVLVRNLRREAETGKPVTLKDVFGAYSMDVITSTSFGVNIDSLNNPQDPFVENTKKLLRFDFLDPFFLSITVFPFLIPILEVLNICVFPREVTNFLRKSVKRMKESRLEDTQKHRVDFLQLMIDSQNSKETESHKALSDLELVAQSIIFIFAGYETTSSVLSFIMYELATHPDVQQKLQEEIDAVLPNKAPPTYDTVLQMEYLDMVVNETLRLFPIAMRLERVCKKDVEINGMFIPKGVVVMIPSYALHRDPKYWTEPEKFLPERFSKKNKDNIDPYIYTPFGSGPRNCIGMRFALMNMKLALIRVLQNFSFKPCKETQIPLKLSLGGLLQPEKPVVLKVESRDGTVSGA
Compound,half-life ([1]; liver microsomes),Ki [2],EC50 [3],IC50 [4],IC50 [5],half-life ([1]; microsomes)
CC(C)(C(=O)Nc1nncs1)[C@@H]1c2ccc(-c3ccc(C(=O)N4CCOCC4)cc3)nc2Oc2c(F)cccc21,9.1 min,0.0449 µM,> 5 µM,3.7 µM,0.3 µM,
CC(C)(C(=O)NC(N)=O)[C@@H]1c2ccc(-c3ccc(C(=O)N4CCOCC4)cc3)nc2Oc2c(F)cccc21,,0.0528 µM,> 5 µM,8.9 µM,> 40 µM,41 min
